Test results: the supplement of paper PMC13380429

What was measured:
Settings in all cases: 72 h
HepG2 [1] = experiment: cell viability relative to DMSO; higher = less toxic
Vero E6 [2] = experiment: as above
Calu-3 [3] = experiment: as above
Caco-2 [4] = experiment: as above
U2OS [5] = experiment: as above
HepG2 [6] = experiment: drug sensitivity score (DSS) for viability; higher = more toxic; extreme values may be limits of the assay
Vero E6 [7] = experiment: as above
Calu-3 [8] = experiment: as above
Caco-2 [9] = experiment: as above
U2OS [10] = experiment: as above
HepG2 [11] = experiment: relative viability EC50 (midpoint between 100% and the lowest measured viability); higher = less toxic
Vero E6 [12] = experiment: as above
Calu-3 [13] = experiment: as above
Caco-2 [14] = experiment: as above
U2OS [15] = experiment: as above

Structure (SMILES) | cell viability (HepG2 [1]; 1 nM) [%] | cell viability (HepG2 [1]; 10 nM) [%] | cell viability (HepG2 [1]; 100 nM) [%] | cell viability (HepG2 [1]; 1000 nM) [%] | cell viability (HepG2 [1]; 10000 nM) [%] | cell viability (Vero E6 [2]; 1 nM) [%] | cell viability (Vero E6 [2]; 10 nM) [%] | cell viability (Vero E6 [2]; 100 nM) [%] | cell viability (Vero E6 [2]; 1000 nM) [%] | cell viability (Vero E6 [2]; 10000 nM) [%] | cell viability (Calu-3 [3]; 1 nM) [%] | cell viability (Calu-3 [3]; 10 nM) [%] | cell viability (Calu-3 [3]; 100 nM) [%] | cell viability (Calu-3 [3]; 1000 nM) [%] | cell viability (Calu-3 [3]; 10000 nM) [%] | cell viability (Caco-2 [4]; 1 nM) [%] | cell viability (Caco-2 [4]; 10 nM) [%] | cell viability (Caco-2 [4]; 100 nM) [%] | cell viability (Caco-2 [4]; 1000 nM) [%] | cell viability (Caco-2 [4]; 10000 nM) [%] | cell viability (U2OS [5]; 1 nM) [%] | cell viability (U2OS [5]; 10 nM) [%] | cell viability (U2OS [5]; 100 nM) [%] | cell viability (U2OS [5]; 1000 nM) [%] | cell viability (U2OS [5]; 10000 nM) [%] | drug sensitivity score (HepG2 [6]) | drug sensitivity score (Vero E6 [7]) | drug sensitivity score (Calu-3 [8]) | drug sensitivity score (Caco-2 [9]) | drug sensitivity score (U2OS [10]) | relative viability EC50 (HepG2 [11]) [µM] | relative viability EC50 (Vero E6 [12]) [µM] | relative viability EC50 (Calu-3 [13]) [µM] | relative viability EC50 (Caco-2 [14]) [µM] | relative viability EC50 (U2OS [15]) [µM]
N#Cc1ccc(N(Cc2ccc(Br)cc2)n2cnnc2)cc1 [YM-511] | 104 | 102 | 99.8 | 96.6 | 98 | 103 | 98 | 100 | 106 | 96.6 | 95.9 | 97.8 | 92.4 | 97.4 | 99.3 | 108 | 92 | 94.1 | 92 | 88.3 | 104 | 96.4 | 103 | 98.4 | 101 | 0 | 0 | 0 | 0.2 | 0 | > 10 | > 10 | > 10 | > 10 | > 10
Cc1ccc(S(=O)(=O)N2CCC[C@H]2c2ccc(F)cc2)cc1 [Ro-67-7476] | 106 | 104 | 96.2 | 102 | 97.4 | 109 | 104 | 94.1 | 104 | 100 | 106 | 101 | 94.4 | 98.1 | 105 | 96.6 | 102 | 102 | 97.3 | 104 | 98.8 | 95.1 | 107 | 99.4 | 99.2 | 0 | 0 | 0 | 0 | 0 | > 10 | > 10 | > 10 | > 10 | > 10
O=C1C(=Cc2cccnc2)C(=O)c2ccccc21 [PRT4165] | 113 | 98.5 | 92.1 | 103 | 87.6 | 96.1 | 99 | 103 | 98.4 | 87.6 | 104 | 103 | 98.4 | 97.4 | 95.6 | 107 | 86.5 | 101 | 87.1 | 98.2 | 102 | 98.9 | 99.1 | 99.6 | 98.3 | 0 | 0.2 | 0 | 0 | 0 | > 10 | > 10 | > 10 | > 10 | > 10
O=C1CCC(N2C(=O)c3ccccc3C2=O)C(=O)N1 (stereo not given) [thalidomide] | 102 | 99.8 | 89.4 | 99.1 | 97.8 | 103 | 102 | 93.9 | 97.3 | 96.1 | 89.8 | 92.1 | 92.2 | 93.6 | 97.9 | 89.6 | 91.9 | 90.9 | 94.7 | 94.9 | 101 | 95.4 | 100 | 95 | 98.6 | 0 | 0 | 0 | 0 | 0 | > 10 | > 10 | > 10 | > 10 | > 10
CC(=O)NCCc1c[nH]c2ccccc12 [N-acetyltryptamine] | 105 | 95.7 | 97.1 | 103 | 104 | 97 | 92.4 | 99 | 91.4 | 107 | 92.8 | 96 | 94.3 | 105 | 99.4 | 93.5 | 94.7 | 99.4 | 96.5 | 102 | 95.4 | 102 | 94.5 | 99.3 | 101 | 0 | 0 | 0 | 0 | 0 | > 10 | > 10 | > 10 | > 10 | > 10
CC(=O)NCCCCCC(=O)O [acexamic-acid] | 93 | 105 | 99.1 | 93.7 | 107 | 99.4 | 99.1 | 101 | 99.3 | 102 | 98.9 | 89.2 | 94.9 | 114 | 102 | 108 | 99.2 | 98.3 | 108 | 103 | 96.8 | 104 | 96.3 | 104 | 100 | 0 | 0 | 0 | 0 | 0 | > 10 | > 10 | > 10 | > 10 | > 10
Fc1ccc(Cl)cc1-c1nc(Nc2ccncc2)c2nccnc2n1 [SD-208] | 107 | 107 | 103 | 95.6 | 98.2 | 102 | 103 | 106 | 96.5 | 86.2 | 107 | 94.9 | 111 | 105 | 103 | 108 | 102 | 104 | 93.4 | 93.2 | 103 | 101 | 96.5 | 90.1 | 91.2 | 0 | 0.4 | 0 | 0 | 0 | > 10 | > 10 | > 10 | > 10 | > 10
O=C(CCCCCCNC(=O)c1cnc(N(c2ccccc2)c2ccccc2)nc1)NO [ACY-1215] | 96.5 | 108 | 87.3 | 86 | 16.2 | 92.9 | 100 | 94.2 | 96.9 | 47.7 | 107 | 93.5 | 100 | 82 | 38.6 | 108 | 92.8 | 106 | 94.3 | 27.2 | 102 | 101 | 107 | 88.6 | 33.3 | 7 | 3.2 | 6 | 4.9 | 5.6 | 1.89 | 2.7 | 1.42 | 2.53 | 1.87
